Experimental data published in patent US12667619B2, “Integrin targeting ligands and uses thereof” (Arrowhead Pharmaceuticals, Inc., priority 2018, dated 2026).

Tests used:
αvβ3 integrin = αvβ3 integrin (Homo sapiens, UniProt P05106+P06756); test: IC50 binding activity, αvβ3 integrin; details: read-out: IC50 ανβ3
Source text: (§1) As reported in the following Table 1, IC50 binding data was obtained for the integrin targeting ligands of Structures 1c, 2c, and 3c, as w ell as an RGD-mimetic peptide:
(§2) Moreover, while the RGD-mimetic ligand is shown to have binding activity, the integrin targeting ligands of the present disclosure have increased stability, both with respect to serum stability in vim and chemical stability ex vim, compared to such peptide-based RGD-mimetic ligands.

αvβ5 integrin = αvβ5 integrin (Homo sapiens, UniProt P06756+P18084); test: IC50 binding activity, αvβ5 integrin; details: read-out: IC50 ανβ5
Sequence of αvβ5 integrin (P06756 31-1048): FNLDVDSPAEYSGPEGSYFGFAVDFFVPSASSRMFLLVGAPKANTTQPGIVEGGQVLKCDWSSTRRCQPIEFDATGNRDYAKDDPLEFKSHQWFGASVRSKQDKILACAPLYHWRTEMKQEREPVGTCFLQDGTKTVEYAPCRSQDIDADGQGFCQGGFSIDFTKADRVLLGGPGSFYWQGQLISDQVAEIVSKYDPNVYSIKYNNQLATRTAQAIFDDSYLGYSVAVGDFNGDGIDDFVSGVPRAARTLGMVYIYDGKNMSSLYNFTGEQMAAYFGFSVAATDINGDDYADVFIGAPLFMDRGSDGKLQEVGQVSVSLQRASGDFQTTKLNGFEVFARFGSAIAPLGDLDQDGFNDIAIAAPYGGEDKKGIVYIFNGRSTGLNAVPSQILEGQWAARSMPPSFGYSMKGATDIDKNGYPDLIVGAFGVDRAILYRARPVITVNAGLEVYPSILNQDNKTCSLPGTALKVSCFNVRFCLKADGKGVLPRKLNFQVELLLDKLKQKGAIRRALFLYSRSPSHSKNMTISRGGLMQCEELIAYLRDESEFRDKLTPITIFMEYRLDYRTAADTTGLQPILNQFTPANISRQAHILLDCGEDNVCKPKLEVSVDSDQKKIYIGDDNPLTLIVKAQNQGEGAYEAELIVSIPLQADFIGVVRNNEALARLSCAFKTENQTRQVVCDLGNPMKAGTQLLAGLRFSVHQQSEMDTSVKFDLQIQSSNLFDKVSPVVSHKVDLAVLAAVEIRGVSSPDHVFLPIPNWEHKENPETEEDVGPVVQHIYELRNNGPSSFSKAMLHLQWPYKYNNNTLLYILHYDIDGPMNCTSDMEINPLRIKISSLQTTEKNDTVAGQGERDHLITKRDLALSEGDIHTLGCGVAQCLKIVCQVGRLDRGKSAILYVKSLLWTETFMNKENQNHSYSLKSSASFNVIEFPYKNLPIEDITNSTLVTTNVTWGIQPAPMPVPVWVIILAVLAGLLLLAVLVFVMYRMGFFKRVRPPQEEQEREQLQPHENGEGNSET
Sequence of αvβ5 integrin (P18084 24-799): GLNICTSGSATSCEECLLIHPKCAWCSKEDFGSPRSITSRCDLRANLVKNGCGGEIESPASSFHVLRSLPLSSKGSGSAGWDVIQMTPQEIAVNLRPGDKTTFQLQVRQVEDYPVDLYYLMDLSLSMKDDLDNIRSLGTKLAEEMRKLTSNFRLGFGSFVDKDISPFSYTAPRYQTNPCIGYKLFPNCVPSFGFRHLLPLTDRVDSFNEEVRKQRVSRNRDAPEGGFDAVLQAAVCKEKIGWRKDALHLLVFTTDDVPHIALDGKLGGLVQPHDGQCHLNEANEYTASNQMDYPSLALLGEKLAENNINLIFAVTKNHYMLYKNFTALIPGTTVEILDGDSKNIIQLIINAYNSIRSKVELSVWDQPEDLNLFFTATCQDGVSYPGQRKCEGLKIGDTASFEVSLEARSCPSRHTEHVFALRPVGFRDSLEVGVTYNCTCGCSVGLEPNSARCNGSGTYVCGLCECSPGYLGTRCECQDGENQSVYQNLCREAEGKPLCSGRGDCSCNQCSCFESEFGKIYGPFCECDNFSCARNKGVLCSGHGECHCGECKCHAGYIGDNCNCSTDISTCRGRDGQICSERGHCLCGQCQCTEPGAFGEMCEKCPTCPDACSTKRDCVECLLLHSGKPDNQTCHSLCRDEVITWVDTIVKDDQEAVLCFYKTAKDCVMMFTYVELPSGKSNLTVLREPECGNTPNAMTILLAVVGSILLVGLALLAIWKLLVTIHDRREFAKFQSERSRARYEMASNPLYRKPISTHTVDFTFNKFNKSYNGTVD
Source text: as §1, §2

ανβ6 = ανβ6 (Homo sapiens, UniProt P06756+P18564); test: IC50 binding activity, αvβ6 integrin
Sequence of ανβ6 (P06756 31-1048): as the sequence (P06756 31-1048) above
Sequence of ανβ6 (P18564 22-788): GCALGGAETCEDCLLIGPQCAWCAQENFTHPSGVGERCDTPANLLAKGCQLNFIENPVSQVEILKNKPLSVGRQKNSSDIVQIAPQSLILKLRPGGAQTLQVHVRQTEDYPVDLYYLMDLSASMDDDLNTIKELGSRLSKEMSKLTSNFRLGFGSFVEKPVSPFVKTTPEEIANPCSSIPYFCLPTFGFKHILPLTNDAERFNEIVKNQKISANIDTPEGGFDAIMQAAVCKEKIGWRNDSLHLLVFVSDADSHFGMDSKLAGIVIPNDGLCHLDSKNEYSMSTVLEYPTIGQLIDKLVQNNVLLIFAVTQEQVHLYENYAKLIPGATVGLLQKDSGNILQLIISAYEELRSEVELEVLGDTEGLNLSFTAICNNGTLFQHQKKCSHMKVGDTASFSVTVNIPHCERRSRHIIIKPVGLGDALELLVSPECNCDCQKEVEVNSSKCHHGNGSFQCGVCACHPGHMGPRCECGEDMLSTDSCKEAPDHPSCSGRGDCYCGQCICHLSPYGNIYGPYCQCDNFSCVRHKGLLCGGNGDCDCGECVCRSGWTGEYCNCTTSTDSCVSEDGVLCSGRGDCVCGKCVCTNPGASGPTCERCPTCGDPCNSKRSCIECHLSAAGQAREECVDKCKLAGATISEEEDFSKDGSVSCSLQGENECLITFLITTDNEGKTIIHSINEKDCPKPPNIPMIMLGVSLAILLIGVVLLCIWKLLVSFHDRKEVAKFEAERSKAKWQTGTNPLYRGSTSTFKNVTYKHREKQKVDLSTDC
Source text: As reported in the following Table 1, IC50 binding data was obtained for the integrin targeting ligands of Structures 1c, 2c, and 3c, as w ell as an RGD-mimetic peptide: […]

Sequence of αvβ3 integrin (P06756 31-1048): as the sequence (P06756 31-1048) above
Sequence of αvβ3 integrin (P05106 27-788): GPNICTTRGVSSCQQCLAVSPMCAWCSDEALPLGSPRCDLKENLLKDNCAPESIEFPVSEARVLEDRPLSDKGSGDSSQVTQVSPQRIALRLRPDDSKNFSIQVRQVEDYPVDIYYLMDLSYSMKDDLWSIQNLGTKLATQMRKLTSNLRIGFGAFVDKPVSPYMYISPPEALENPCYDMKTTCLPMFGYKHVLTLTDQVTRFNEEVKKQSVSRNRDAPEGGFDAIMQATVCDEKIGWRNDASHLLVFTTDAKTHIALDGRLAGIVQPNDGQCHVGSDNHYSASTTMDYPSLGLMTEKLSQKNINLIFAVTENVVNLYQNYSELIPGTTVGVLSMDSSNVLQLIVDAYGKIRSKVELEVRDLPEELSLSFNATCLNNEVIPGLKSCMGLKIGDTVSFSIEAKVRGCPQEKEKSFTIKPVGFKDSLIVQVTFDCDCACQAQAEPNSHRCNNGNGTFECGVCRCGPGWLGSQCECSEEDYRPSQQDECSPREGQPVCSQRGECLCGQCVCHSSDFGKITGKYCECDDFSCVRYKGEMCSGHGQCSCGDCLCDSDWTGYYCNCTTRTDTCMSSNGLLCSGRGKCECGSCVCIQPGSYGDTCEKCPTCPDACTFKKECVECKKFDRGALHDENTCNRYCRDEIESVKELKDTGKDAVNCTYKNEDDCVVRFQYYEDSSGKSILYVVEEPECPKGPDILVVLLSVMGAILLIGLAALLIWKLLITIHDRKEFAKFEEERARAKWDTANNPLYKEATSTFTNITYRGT

| IC50 (αvβ3 integrin) [nM] | IC50 (αvβ5 integrin) [nM] | IC50 (ανβ6) [nM] | Structure (SMILES) |
| --- | --- | --- | --- |
| 0.3 | 0.6 | 5.3 | [N-]=[N+]=NCCOCCOCCOCCOCCC(=O)NCCCOc1ccc([C@H](CC(=O)O)N2CCN(CCCc3ccc4c(n3)NCCC4)C2=O)cn1 [Structure 1c, (S)-3-(6-((1-azido-15-oxo-3,6,9,12-tetraoxa-16-azanonadecan-19-yl)oxy)pyridin-3-yl)-3-(2-oxo-3-(3-(5,6,7,8-tetrahydro-1,8-naphthyridin-2-yl)propyl)imidazolidin-1-yl)propanoic acid] |
| 0.3 | 5.6 | 8.9 | [N-]=[N+]=NCCOCCOCCOCCOc1ccc([C@H](CC(=O)O)N2CCN(CCCc3ccc4c(n3)NCCC4)C2=O)cc1F [Structure 2c, (S)-3-(4-(2-(2-(2-(2-azidoethoxy)ethoxy)ethoxy)ethoxy)-3-fluorophenyl)-3-(2-oxo-3-(3-(5,6,7,8-tetrahydro-1,8-naphthyridin-2-yl)propyl)imidazolidin-1-yl)propanoic acid] |
